Reference: paper PMC6927504, “Screening of House Dust from Chinese Homes for Chemicals with Liver X Receptors Binding Activities and Characterization of Atherosclerotic Activity Using an in Vitro Macrophage Cell Line and ApoE^−/− Mice” (Environmental Health Perspectives, 2019)
Where two headings read alike, the source gives them in different places. Blank lines part the entries; values can stand above or below the compound they belong to.

Columns and labels:
human LXRα [1] = target: T1, human LXRα (Homo sapiens, UniProt Q13133); test: cell-based
T1 construct: expressed in transfected cells; host or cells: Saccharomyces cerevisiae Y187
T1 sequence (Q13133 205-447): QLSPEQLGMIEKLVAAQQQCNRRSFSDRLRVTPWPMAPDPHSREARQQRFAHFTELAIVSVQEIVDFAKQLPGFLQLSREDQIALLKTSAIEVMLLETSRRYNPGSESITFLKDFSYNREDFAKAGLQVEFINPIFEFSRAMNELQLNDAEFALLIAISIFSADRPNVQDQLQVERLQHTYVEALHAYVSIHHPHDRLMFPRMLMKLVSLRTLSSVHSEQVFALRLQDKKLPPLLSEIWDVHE

human LXRβ [2] = target: T2, human LXRβ (Homo sapiens, UniProt P55055); test: cell-based
T2 sequence (P55055 219-460): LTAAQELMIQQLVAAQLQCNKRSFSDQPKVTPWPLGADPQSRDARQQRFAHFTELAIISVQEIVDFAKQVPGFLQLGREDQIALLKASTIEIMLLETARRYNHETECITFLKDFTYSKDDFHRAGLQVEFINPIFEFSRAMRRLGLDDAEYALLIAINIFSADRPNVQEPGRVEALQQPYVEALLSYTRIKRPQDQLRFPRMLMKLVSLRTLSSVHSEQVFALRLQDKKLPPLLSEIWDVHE

human LXRβ [3] = target: T2, human LXRβ; test: Yeast two-hybrid assay (LXRβ LBD with coactivator TIF2, β-galactosidase readout)
atherosclerotic mice = system: atherosclerotic mice; design: method as in Joseph et al. 2002; details: ref Joseph et al. 2002; cited from earlier work
ABCA1 = test: qRT-PCR of LXR target gene ABCA1 in RAW264.7 macrophages; format: cell-based; details: TO901317 at 5–100 nM with TPHP 10,000 nM
Experimental: (§1) RAW264.7 cells were obtained from the National Infrastructure of Cell Line Resource of Beijing, China, and the cells used for the experiment were cultured for at least three passages. Dulbecco’s Modified Eagle’s Medium (DMEM)-F12 medium containing 10% fetal bovine serum (FBS) was employed to culture the RAW264.7 cells. RAW264.7 cells were incubated at 37°C with 5% carbon dioxide. The RAW264.7 cells were plated at 2.5×10^5 cells/well (6-well plates), 6.0×10^4 cells/well (24-well plates), and 10^4 cells/well (96-well plates). The RAW264.7 cells were plated and grown overnight; then the medium was removed and fresh DMEM-F12 contained with 0.1% DMSO (control; n=3 ) or TPHP at the concentrations of 1–20,000 nM ( n=3 per group) was added. […] Then the cells were used for the quantitative reverse transcription (qRT)-PCR, cellular cholesterol efflux assay, and foam cell formation experiment.
(§2) Total RNA was isolated from RAW264.7 cells and mouse peritoneal macrophages using TRIzol reagent according to the manufacturer’s instructions. Then a Nanovue Plus™ spectrophotometer (GE Healthcare Life Science) was used to analyze the concentration, quality, and purity of the RNA. Total RNA ( 1μg ) was mixed with oligo deoxythymine (dT) ( 1μL ) at 70°C for 5 min and then combined with a mixture containing Moloney murine leukemia virus (MMLV) reverse transcriptase ( 1μL ), deoxy-ribonucleoside triphosphate (dNTP) ( 1.25μL ), Recombinant RNasin® Ribonuclease Inhibitor (Promega) ( 0.65μL ), and MMLV buffer ( 5μL ) at 42°C for 60 min. The SYBR® Green PCR Kit (TOYOBO) was used for RT-PCR analysis. Real-time fluorescence detection was performed using the StepOnePlus™ sequence detection system (Applied Biosystems). […] The following primers were designed and purchased from Sangon Biotech:
(§3) • actin: 5′-[…]-3′ and 5′-[…]-3′ ATP-binding cassette transporter A1 (ABCA1): 5′-[…]-3′ and 5′-[…]-3′ • ATP-binding cassette transporter G1 (ABCG1): 5′-[…]-3′ and 5′-[…]-3′.

human LXRα [4] = target: T3, human LXRα (Homo sapiens, UniProt Q13133); format: binding
T3 construct: the full-length human LXRα gene was amplified by polymerase chain reaction (PCR); made in house; host or cells: E. coli BL21
T3 sequence (Q13133 1-447): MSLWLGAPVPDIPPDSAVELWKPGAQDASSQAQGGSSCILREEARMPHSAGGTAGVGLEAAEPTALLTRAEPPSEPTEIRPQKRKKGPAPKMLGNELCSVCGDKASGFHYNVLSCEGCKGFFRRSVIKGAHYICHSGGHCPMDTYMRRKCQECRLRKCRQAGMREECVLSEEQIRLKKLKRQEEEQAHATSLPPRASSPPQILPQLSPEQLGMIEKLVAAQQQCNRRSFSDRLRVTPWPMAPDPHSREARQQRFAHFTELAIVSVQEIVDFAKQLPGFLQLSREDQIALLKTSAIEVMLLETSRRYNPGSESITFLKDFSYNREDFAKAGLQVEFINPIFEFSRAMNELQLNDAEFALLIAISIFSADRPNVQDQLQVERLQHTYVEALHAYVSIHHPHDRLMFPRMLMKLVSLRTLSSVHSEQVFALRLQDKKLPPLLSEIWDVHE

ABCG1 = test: qRT-PCR of LXR target gene ABCG1 in RAW264.7 macrophages; format: cell-based; details: TO901317 at 5–100 nM with TPHP 10,000 nM
Experimental: as §1, §2, §3

[5] = dust standard reference material SRM2585
[6] = range over indoor dust samples (Table S4)

Structure (SMILES): CCCCC(CC)COP(=O)(Oc1ccccc1)Oc1ccccc1 (centres unmarked) [EHDPP, 2-ethylhexyl diphenyl phosphate]
IC50 (human LXRα [1]): 5.69 µM
Contribution to the LXRα-antagonist activity of SRM2585 (human LXRα [1]; [5]): 3.01%
Share of the LXRα-antagonist activity of indoor dust explained by the chemical (human LXRα [1]; [6]): 0.01–25.02%
IC50 (human LXRβ [2]): 2.17 µM
Contribution to the LXRβ-antagonist activity of SRM2585 (human LXRβ [3]; [5]): 1.55%
Share of the LXRβ-antagonist activity of indoor dust explained by the chemical (human LXRβ [3]; [6]): 0.01–22.92%

Structure (SMILES): O=C(O)Cc1cccc(OCCCN(Cc2cccc(C(F)(F)F)c2Cl)CC(c2ccccc2)c2ccccc2)c1 [GW3965]
Atherosclerotic plaques (atherosclerotic mice): promoted regression of atherosclerotic plaques
Foam cell formation (atherosclerotic mice): inhibited foam cell formation

Structure (SMILES): O=[N+]([O-])c1ccc(O)cc1 [PNP, p-nitrophenol]
EC50 (human LXRα [1]; agonist mode, β-galactosidase activity, n=3): 14 µM
EC50 (human LXRβ [3]): 15.1 µM

Structure (SMILES): CCOC(=O)c1ccc(CN(Cc2ccc(-c3cccc(S(C)(=O)=O)c3)cc2)S(=O)(=O)c2c(C)cc(C)cc2C)o1 [SR9238, reference compound]
IC50 (human LXRα [1]; read-out: IC50 for LXRα (antagonist activity)): 0.825 µM
IC50 (human LXRβ [2]): 0.446 µM

Average percentage pulled down of the spiked concentration (human LXRα [4]; His-TF-LXRα group): 89%
Average percentage pulled down of the spiked concentration (human LXRα [4]; control group (His-TF protein without LXRα)): 10%
Recovery in pull-down by recombinant LXRα (human LXRα [4]; spiked at 0.25 μg/L): 100%±3%
Recovery in pull-down by recombinant LXRα (human LXRα [4]; spiked at 2.5 μg/L): 85%±5%
Recovery in pull-down by recombinant LXRα (human LXRα [4]; spiked at 25 μg/L): 80%±0.7%
Recovery in pull-down by recombinant LXRα (human LXRα [4]; spiked at 250 μg/L): 92%±4%
Structure (SMILES): O=S(=O)(c1ccccc1)N(CC(F)(F)F)c1ccc(C(O)(C(F)(F)F)C(F)(F)F)cc1 [TO901317]
ABCA1 gene expression in cells co-exposed to TPHP, versus TPHP alone (ABCA1): dose-dependently higher
ABCG1 gene expression in cells co-exposed to TPHP, versus TPHP alone (ABCG1): dose-dependently higher
